Reference: patent publication US20250230193A1, “CYCLIC COMPOUND HAVING SELECTIVE KRAS INHIBITORY EFFECT ON HRAS AND NRAS” (CHUGAI SEIYAKU KABUSHIKI KAISHA, priority 2022, published 2025)
Where a SMILES comes first, the peptide text is derived from it. Bridges are numbered along the chain shown (N, C = ends). [ ]: non-standard residue; d: D form. hPhe(3-Cl-4-CF3) = N[C@@H](CCc1ccc(C(F)(F)F)c(Cl)c1)C(=O)O; NPrPhe(4-CF3) = CCCN[C@@H](Cc1ccc(C(F)(F)F)cc1)C(=O)O; NMeGly(cPent) = CN[C@H](C(=O)O)C1CCCC1; Hyp = O=C(O)[C@@H]1C[C@@H](O)CN1; NMeL = CN[C@@H](CC(C)C)C(=O)O; Aze = O=C(O)[C@@H]1CCN1; Ac4c = NC1(C(=O)O)CCC1; Sar = CNCC(=O)O

Experiments:
[1] = biological target: GDP-bound NRAS wild-type protein (Homo sapiens, UniProt P01111); assay: Binding to NRAS by surface plasmon resonance (SPR), Single Cycle Kinetics; details: for NRAS/KRAS (ratio of KD value with respect to GDP-bound NRAS wild-type protein to KD value with respect to KRAS): class symbols; for NRAS/KRAS (ratio of KD value with respect to NRAS to KD value with respect to KRAS): GDP-bound NRAS wild-type vs GDP-bound KRAS wild-type
Chain of GDP-bound NRAS wild-type protein (P01111 whole entry): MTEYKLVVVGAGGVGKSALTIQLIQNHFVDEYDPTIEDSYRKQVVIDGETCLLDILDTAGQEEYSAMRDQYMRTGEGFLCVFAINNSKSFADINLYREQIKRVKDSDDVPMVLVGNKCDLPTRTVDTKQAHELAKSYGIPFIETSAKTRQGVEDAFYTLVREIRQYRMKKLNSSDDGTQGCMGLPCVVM

[2] = biological target: GDP-bound HRAS wild-type protein (Homo sapiens, UniProt P01112); assay: Binding to HRAS by surface plasmon resonance (SPR), Single Cycle Kinetics; details: for HRAS/KRAS (ratio of KD value with respect to GDP-bound HRAS wild-type protein to KD value with respect to KRAS): class symbols; for HRAS/KRAS (ratio of KD value with respect to HRAS to KD value with respect to KRAS): GDP-bound HRAS wild-type vs GDP-bound KRAS wild-type
Chain of GDP-bound HRAS wild-type protein (P01112 whole entry): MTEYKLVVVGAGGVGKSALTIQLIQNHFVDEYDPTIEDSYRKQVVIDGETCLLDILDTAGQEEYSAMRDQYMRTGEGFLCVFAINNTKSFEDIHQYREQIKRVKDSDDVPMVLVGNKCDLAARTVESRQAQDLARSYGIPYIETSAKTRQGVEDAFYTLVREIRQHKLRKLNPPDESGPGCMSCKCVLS

With `CCC[C@H]1C(=O)N[C@@H]([C@@H](C)CC)C(=O)N2CCC[C@H]2C(=O)N(C)[C@H]2C/C=C\CCN(C2=O)[C@@H](Cc2ccc(C(F)F)cc2)C(=O)N(C)CC(=O)N[C@@H](CCc2ccc(Cl)c(Cl)c2)C(=O)N2C[C@H](OC3CCC3)C[C@H]2C(=O)NC2(CC(C)(C)C2)C(=O)N(C)[C@@H](C(CC)CC)C(=O)N(C)[C@H](C(=O)N(C)C)CC(=O)N1C` [PP2646] the “NRAS/KRAS (ratio of KD value with respect to GDP-bound NRAS wild-type protein to KD value with respect to KRAS)” value ([1]; KD ratio NRAS/KRAS) was “AA (a compound having 20 or more is denoted as AA)” and the “HRAS/KRAS (ratio of KD value with respect to GDP-bound HRAS wild-type protein to KD value with respect to KRAS)” value ([2]; KD ratio HRAS/KRAS) was “A (a compound having 10 or more and less than 20 is denoted as A)”.
With `CCO[C@@H]1C[C@H]2C(=O)NC3(CC(C)(C)C3)C(=O)N(C)[C@@H](C(CC)CC)C(=O)N(C)[C@H](C(=O)N(C)C)CC(=O)N(C)[C@H]3CCC/C=C/c4ccc(cc4)C[C@@H](C(=O)N(C)CC(=O)N[C@@H](CCc4cc(F)c(C(F)(F)F)c(F)c4)C(=O)N2C1)N1CC/C=C\C[C@@H](C1=O)N(C)C(=O)CN(C1CC1)C(=O)[C@H]([C@@H](C)CC)NC3=O` [PP2955] the “NRAS/KRAS (ratio of KD value with respect to GDP-bound NRAS wild-type protein to KD value with respect to KRAS)” value ([1]; KD ratio NRAS/KRAS) was “A (a compound having 10 or more and less than 20 is denoted as A)” and the “HRAS/KRAS (ratio of KD value with respect to GDP-bound HRAS wild-type protein to KD value with respect to KRAS)” value ([2]; KD ratio HRAS/KRAS) was “A (a compound having 10 or more and less than 20 is denoted as A)”.
In the case of `C=CC[C@H]1C(=O)N[C@@H]([C@@H](C)CC)C(=O)N(C)CC(=O)N(C)[C@H]2CCCCN(C2=O)[C@@H](Cc2ccc(C(F)(F)F)cc2)C(=O)N(C)CC(=O)N[C@@H](CCc2cc(F)c(C(F)(F)F)c(F)c2)C(=O)N2C[C@H](OCC)C[C@H]2C(=O)N[C@](C)(CC=C)C(=O)N(C)[C@@H](C2CCCC2)C(=O)N(C)[C@H](C(=O)N2CCOCC2)CC(=O)N1C` [PP0874], the “NRAS/KRAS (ratio of KD value with respect to NRAS to KD value with respect to KRAS)” value ([1]; KD ratio, SPR) is reported as “C (A compound having a KD ratio of 0.1 or more and less than 3 is denoted as C)” and the “HRAS/KRAS (ratio of KD value with respect to HRAS to KD value with respect to KRAS)” value ([2]; KD ratio, SPR) is reported as “B (a compound having 3 or more and less than 10 is denoted as B)”.
In the case of `CCO[C@@H]1C[C@H]2C(=O)NC3(CCC3)C(=O)N(C)[C@@H](C3CCCC3)C(=O)N(C)[C@H](C(=O)N(C)CC)CC(=O)N(C)[C@H]3CCCCCc4ccc(cc4)C[C@@H](C(=O)N(C)CC(=O)N[C@@H](CCc4ccc(C(F)(F)F)c(OC)c4)C(=O)N2C1)N1CC/C=C\C[C@@H](C1=O)N(C)C(=O)CN(C)C(=O)[C@H]([C@@H](C)CC)NC3=O` [PP2118], the “NRAS/KRAS (ratio of KD value with respect to NRAS to KD value with respect to KRAS)” value ([1]; SPR) is reported as “A (a compound having 10 or more and less than 20 is denoted as A)” and the “HRAS/KRAS (ratio of KD value with respect to HRAS to KD value with respect to KRAS)” value ([2]; SPR) is reported as “B (a compound having 3 or more and less than 10 is denoted as B)”.
For `CCCN1C(=O)[C@@H]2CCN2C(=O)CN(C)C(=O)[C@H]([C@@H](C)CC)NC(=O)[C@H](CC(C)C)N(C)C(=O)C[C@@H](C(=O)N(C)C)NC(=O)[C@H](C2CCCC2)N(C)C(=O)C2(CCC2)NC(=O)[C@@H]2C[C@@H](OCC)CN2C(=O)[C@H](CCc2ccc(C(F)(F)F)c(Cl)c2)NC(=O)CN(C)C(=O)[C@@H]1Cc1ccc(C(F)(F)F)cc1` [PP0390] ([NMeL]I[Sar][Aze][NPrPhe(4-CF3)][Sar][hPhe(3-Cl-4-CF3)][Hyp](Et)[Ac4c][NMeGly(cPent)]D-NMe2; lactam N-11), the “NRAS/KRAS (ratio of KD for GDP-bound NRAS wild-type to KD for KRAS)” value ([1]; KD ratio NRAS/KRAS, SPR) was “C (A compound having a KD ratio of 0.1 or more and less than 3 is denoted as C)” and the “HRAS/KRAS (ratio of KD for GDP-bound HRAS wild-type to KD for KRAS)” value ([2]; KD ratio HRAS/KRAS, SPR) was “B (a compound having 3 or more and less than 10 is denoted as B)”.
With `CCCOC[C@H]1C(=O)N[C@@H]([C@@H](C)CC)C(=O)N(C)CC(=O)N(C)[C@H]2C/C=C\CCN(C2=O)[C@@H](Cc2ccc(C)cc2)C(=O)N(C)CC(=O)N[C@@H](CCc2ccc(C(F)(F)F)c(Cl)c2)C(=O)N2C[C@H](OCC)C[C@H]2C(=O)NC2(CC(C)(C)C2)C(=O)N(C)[C@@H](C2CCCC2)C(=O)N(C)[C@H](C(=O)N(C)CC)CC(=O)N1C` [PP2469] the “NRAS/KRAS (ratio of KD value with respect to NRAS to KD value with respect to KRAS)” value ([1]; SPR) was “A (a compound having 10 or more and less than 20 is denoted as A)” and the “HRAS/KRAS (ratio of KD value with respect to HRAS to KD value with respect to KRAS)” value ([2]; SPR) was “B (a compound having 3 or more and less than 10 is denoted as B)”.
For `CCC[C@H]1C(=O)N[C@@H](CC(C)C)C(=O)N(C2CC2)CC(=O)N(C)[C@H]2C/C=C\CCN(C2=O)[C@@H](Cc2ccc(C)cc2)C(=O)N(C)CC(=O)N[C@@H](CCc2cc(F)c(C(F)(F)F)c(F)c2)C(=O)N2C[C@H](OCC)C[C@H]2C(=O)NC2(CC(C)(C)C2)C(=O)N(C)[C@@H](C2CCCC2)C(=O)N(C)[C@H](C(=O)N(C)C)CC(=O)N1C` [PP2508], the “NRAS/KRAS (ratio of KD value with respect to NRAS to KD value with respect to KRAS)” value ([1]; SPR) was “A (a compound having 10 or more and less than 20 is denoted as A)” and the “HRAS/KRAS (ratio of KD value with respect to HRAS to KD value with respect to KRAS)” value ([2]; SPR) was “B (a compound having 3 or more and less than 10 is denoted as B)”.
